Patent publication US20250114582A1, “METHOD FOR EFFICIENT DRUG ADMINISTRATION ACROSS THE BLOOD-BRAIN BARRIER AND USES THEREOF” (Carthera, priority 2023, published 2025)
Values joined by “and” are separate entries in the source; they are usually repeats but may differ in a detail not shown here. Equal entries are not always repeated. “Also recorded” adds a separate entry of the source.

Legend:
[1] = plasma kinetics used for the model; cited from earlier work
[2] = system: recurrent Glioblastoma Multiforme (GBM); assay: phase 1/2a clinical trial: carboplatin with LIPU/microbubble BBB opening (SonoCloud-9), clinical outcomes; assay type: in vivo, human
Experimental: A prospective, open-label, multi-center, single-arm, dose escalation, phase 1/2a clinical trial was conducted enrolling recurrent Glioblastoma Multiforme (“GBM”) patients at four clinical sites in France and two sites in the United States. All patients provided written informed consent in accordance with institutional guidelines. Approval was obtained from the ANSM (French National Health Agency) and from the US FDA (Food and Drug Administration). The study was conducted in accordance with good clinical practices. The study began in February 2019 and follow-up was completed in November 2022.
The trial was designed to evaluate the safety and efficacy of transient disruption of the blood-brain barrier by low intensity pulsed ultrasound (“LIPU”) with an implantable ultrasound device, i.e., the SonoCloud-9 implantable device (“SC9”; Carthera, Lyon, France). The trial first evaluated the Dose Limiting Toxicity (“DLT”) of escalating numbers of ultrasound beams (3, 6, and 9 beams) at constant acoustic pressure (1.03 MPa) using a 3+3 dose escalation design (cohorts A, B and C) and then confirmed the safety and efficacy of BBB opening in two expansion cohorts (cohorts C & D).
(§1) The secondary endpoints included the frequency and severity of adverse events (incidence of adverse events summarized by system organ class and/or preferred term and severity) based on the CTCAE, version 5.0, the time to and localization of recurrence(s) on magnetic resonance imaging, feasibility of the procedure considering the time required for the sonication (from beginning of needle connection to the end of ultrasound emission and needle extraction) at the first 3 sonications of each patient, and the total time for SonoCloud 9 positioning using the SonoCloud 9 template. Six-month progression-free survival (6m-PFS), median progression-free survival (mPFS), and 1-year overall survival (1y-OS) and median OS (mOS) were also evaluated. In this trial, time to progression or to death was calculated from time of surgery/device implantation to time of events.
The SC9 device contains no internal energy source and is activated on demand by connecting the device to an external generator using a transdermal needle, as shown in FIG. 7A. Each sonication step consists of the generation of sequential pulses from each emitter (1 MHz, 25 ms pulse, 0.5 Hz, 270 seconds) in combination with the IV administration of the ultrasound resonator (microbubbles [MB], Definity®/Luminity® 10 μL/kg, Lantheus, N. Billerica, MA). The ultrasound resonator is injected as a 30-second bolus at the start of the ultrasound sonication procedure. Sonication was performed prior (within 60 minutes) to the carboplatin chemotherapy at cycles 1, 2 and 3 and no more than 30 minutes before the start of carboplatin therapy for the following cycles, for cohorts A, B, and C. For cohort D, the sonication was performed immediately after the completion of the carboplatin infusion. After completion of the six sonication cycles specified in the protocol or in the case of progression/premature discontinuation of the trial and prior to the end of study visit, the removal of the device could be performed unless considered as contra-indicated by the investigator or refused by the patient.
Standard carboplatin chemotherapy using any FDA/ANSM-approved, therapeutically equivalent carboplatin injectable drug product, with a target AUC of 4-6 mg/ml*min (AUC as per local practice and investigators judgement) was given according to the Calvert formula (Calvert et al., 1989, J. Clin. Oncol. 7:1748-1756). Cycles were to be repeated every 4 weeks provided the absolute neutrophil count had recovered to ≥1500 cells/mm^3 and the platelet count was at least 100,000 cells/mm^3. Subsequent dosages were adjusted for toxicity as needed per local practice.

[3] = dose-limiting toxicity, tolerability and safety of carboplatin delivered with concomitant LIPU/MB-based BBB opening; assay type: in vivo, human
Description: For the Phase 1 (escalation of the number of active emitters/beams), the main objective was to identify the Maximum Tolerated Dose (“MTD”) defined as the highest active-beams level at which ≤1 DLT occurred in a maximum of 6 patients by cohort. […]
as §1
All patients were clinically assessed at least once a month (prior to the next cycle) and included standard laboratory blood analyses (complete blood counts, chemistry with liver and kidney function tests), and also a contrast-enhanced MRI within 2 days prior to sonication. Patients discontinued the study if tumor progression was identified according to the Response Assessment in Neuro-Oncology criteria (Wen et al., 2010, J. Clin. Oncol. 28:1963-1972). For patients continuing the study, subsequent MRI exam was to be performed immediately after LIPU/MB treatment.

[4] = system: recurrent Glioblastoma Multiforme (GBM); assay: contrast enhancing tumor progression assessment on MRI in the clinical trial; assay type: in vivo, human; conditions: for tumor growth rate (median): hyperintense T1w volume in region targeted by the implant
Experimental: To evaluate the local effect of the treatment, an analysis was performed using the monthly pre-ultrasound and end-of-study MR images. The T1w contrast-enhancing tumor-related region segmented with a semi-automatic method (ITK Snap) (Yushkevich et al. 2006, Neuroimage 31:1116-1128). The total volume of this hyperintense region was evaluated at each treatment cycle in the whole brain, and in the region targeted by the implant, considering nine […] cylinders in front of the emitters. This region corresponded to 10×75 mm cylinders with an additional diffusion margin of 5 mm (Goldwirt et al., 2016, Cancer Chemother. Pharmacol. 77:211-216).
To further evaluate tumor progression likelihood as a function of distance to the region targeted by the emitters, the difference of this hyperintense volume between the last MRI and the first cycle was used as a progression mask. The distribution of the volume of this progression mask relative to the distance to the axes of the nine emitters was computed.

[5] = cohort C, carboplatin after US (N = 15)
[6] = cohort D, carboplatin before US (N = 12)
[7] = cohorts C + D (N = 27), 9 emitters activated
[8] = CTCAE Grade 3, N = 34, related to the investigational procedure
[9] = CTCAE all grade, N = 34, related to the investigational procedure

In the case of `N.N.O=C([O-])C1(C(=O)[O-])CCC1.[Pt+2]` [carboplatin], the alpha half-life [1] is listed as roughly 1 h, the beta half-life [1] is listed as roughly 6 h and the “1-yr OS” value [2, 5] is listed as 46.7% and 47%. For the same molecule, the “9-month OS” value [2, 5] was 67%, the mOS [2, 5] was 11.8 months and the mPFS [2, 5] was 2.5 months. For the same molecule, the “1-yr OS” value [2, 6] was 58.3% and 58%, the “9-month OS” value [2, 6] was 75% and the mOS [2, 6] was 14.0 months. For the same molecule, the mPFS [2, 6] was 3.1 months, the “1-yr OS” value [2, 7] was 52% and the “9-month OS” value [2, 7] was 70%. The mOS [2, 7] was 12.4 months, the mPFS [2, 7] was 2.7 months and the “General disorders and administration site conditions” value [3, 8] was 1 (3%). The Infections and infestations [3, 8] was 2 (6%), the Nervous system disorders [3, 8] was 3 (9%) and the “Patients with Any Related TEAEs (Overall)” value [3, 8] was 12 (35%). For the same molecule, the “Skin and subcutaneous tissue disorders” value [3, 8] was 6 (18%), the Anxiety [3, 9] was 1 (3%) and the Aphasia [3, 9] was 4 (12%). For the same molecule, the Balance disorder [3, 9] was 1 (3%), the Cerebrospinal fluid leakage [3, 9] was 2 (6%) and the Confusional state [3, 9] was 1 (3%). The Depression [3, 9] was 1 (3%), the Diplopia/Vision blurred [3, 9] was 6 (17%) and the Dizziness [3, 9] was 8 (24%). The Dysarthria [3, 9] was 2 (6%), the “Ear and labyrinth disorders” value [3, 9] was 2 (6%) and the Fatigue/Asthenia [3, 9] was 6 (18%). For the same molecule, the “General disorders and administration site conditions” value [3, 9] was 8 (24%), the Headache [3, 9] was 7 (21%) and the Hypoaesthesia [3, 9] was 1 (3%). The Implant site pain [3, 9] was 1 (3%), the Infections and infestations [3, 9] was 2 (6%) and the “Injury, poisoning and procedural complications” value [3, 9] was 3 (9%). For the same molecule, the Lacunar stroke [3, 9] was 1 (3%), the Language disorder [3, 9] was 1 (3%) and the Meningocele acquired [3, 9] was 3 (9%). For the same molecule, the Monoparesis [3, 9] was 1 (3%), the Nervous system disorders [3, 9] was 25 (74%) and the Pain of skin [3, 9] was 19 (56%). For the same molecule, the Paraesthesia [3, 9] was 3 (9%), the “Patients with Any Related TEAEs (Overall)” value [3, 9] was 33 (97%) and the Post procedural oedema [3, 9] was 1 (3%). The Presyncope [3, 9] was 2 (6%), the Psychiatric disorders [3, 9] was 2 (6%) and the Scar [3, 9] was 1 (3%). The Seizure [3, 9] was 2 (6%), the “Skin and subcutaneous tissue disorders” value [3, 9] was 19 (56%) and the Subarachnoid haemorrhage [3, 9] was 1 (3%). For the same molecule, the Vertigo [3, 9] was 2 (6%), the “Wound infection/Postoperative wound infection” value [3, 9] was 2 (6%) and the “grade 4 events” value ([3]; CTCAE, all implanted patients) was “No grade 4 events”. For the same molecule, the “tolerability of device implantation and repeated BBB opening procedure” value ([3]; all patients) was “well-tolerated”, the “pattern of hematological and non-hematological toxicities secondary to carboplatin” value ([3]; e.g. bone marrow suppression, anemia, vomiting) was “as expected” and the “Dose Limiting Toxicity (DLT)” value ([3]; sonication plus carboplatin, 3, 6 and 9 beams) was “No DLTs”. For the same molecule, the “tumor growth rate (median)” value ([4]; cohort C (carboplatin after sonication)) was 2.31 mL/month, the “evolution of the T1w enhancement outside the sonication field” value ([4]; cohort C vs cohort D, region targeted by the implant excluded (p=0.55)) was “no significant difference” and the “tumor growth rate (median)” value ([4]; cohort D (carboplatin before sonication)) was 0.54 mL/month. The in-field tumor control ([4]; cohort D compared to cohort C) was “Better in-field tumor control” and the “local tumor progression probability (% ROI volume covered with hyperintense tumor at end of study vs distance to emitter axis)” value ([4]; cohort D vs cohort C, up to 10 mm radius from emitter axes (significant up to 7.5 mm)) was “less likelihood; also recorded: lower”.

In the case of `CC(=O)O[C@H]1C(=O)[C@@]2(C)[C@H]([C@H](OC(=O)c3ccccc3)[C@]3(O)C[C@H](OC(=O)[C@H](O)[C@@H](NC(=O)c4ccccc4)c4ccccc4)C(C)=C1C3(C)C)[C@]1(OC(C)=O)CO[C@@H]1C[C@@H]2O` [paclitaxel], the alpha half-life [1] is listed as roughly 0.5 h and the beta half-life [1] is listed as “several hours”.
